Test results: US9309247B2, “2-substituted imidazo[4,5-D]phenanthroline derivatives and their use in the treatment of cancer” (Aptose Biosciences Inc., priority 2013, dated 2016)
pIC50: −log10 of the molar value.

Experiments:
[1] = test system: panel of human and mouse lymphoma cell lines; experiment: Cell growth inhibition, whole lymphoma panel (mean IC50, mean rank); type: cell-based; settings: mean over six lymphoma cell lines
Procedure: (§1) In this study, compounds 1-8 were screened in vitro against a panel of four mouse lymphoma cell lines and two human lymphoma cell line for cell growth inhibition activity. Following treatment, half maximal inhibitory concentrations (IC50) were determined with the objective of selecting the most efficacious compounds for evaluation of in vitro absorption, distribution, metabolism, and excretion (ADME) screening.
(§2) Cells were subcultured and 4×10^3 cells (in 50 μL) were transferred to each well in a Falcon 96-well tissue culture plate. Exemplary compounds were dissolved in pure dimethyl sulphoxide (DMSO) at a concentration of 10 mM. From this 10 mM stock solution, 12 successive serial dilutions were made in DMSO (2.5 fold dilutions), ranging from 0.52 μM to 10 mM. Using these stock dilutions, 5 μL of each were added to 500 μL of media, and 50 μL of this was added to the cells. The final concentrations being tested ranged from 0.0026 μM to 50 μM. Each concentration was tested in triplicate, and DMSO and untreated cells were also included as controls. After five days of incubation with the compounds, cell viability was determined using the XTT cell proliferation kit (Roche, Cat. No. 11 465 015 001). Following the XTT protocol, 4.5-24 hours after addition of the reagent, the plates were read in a μQuant 96-well plate spectrophotometer (Biotek Instruments Inc.) and the results analyzed to determine the IC50.
In vitro potency was assessed using eight exemplary compounds against a panel of human and mouse lymphoma cell lines (Table 4). […] To compare the efficacy of the compounds in cell growth inhibition across the entire panel of cell lines screened, the eight compounds were ranked according to efficacy against each cell line with a numerical value of one indicating most efficacious (lowest IC50 value) and eight being the least efficacious (highest IC50 value).

WR19L (mouse, lymphoma) = experiment: Cell growth inhibition assay, WR19L; type: cell-based; settings: five days of incubation, XTT; read-out: IC50 WR19L (ms)
Procedure: as §1
(§3) Similarly, human Burkitt's lymphoma Ramos cells (ATCC CRL-1596) were grown in suspension in Roswell Park Memorial Institute (RPMI) 1640 medium supplemented with 10% fetal bovine serum (FBS), 10 mM HEPES KOH pH 7.4, and 2 mM sodium pyruvate. Mouse P388D1 (ATCC CCL-46) and WR19L (ATCC TIB-52) cells were grown in suspension in Dulbecco's Modified Eagle Medium (DMEM) with 10% fetal bovine serum (FBS), 10 mM HEPES, and 2 mM sodium pyruvate. Mouse WEHI231 (ATCC CRL-1702) and EL4 (ATCC TIB-39) cells were grown in suspension in DMEM with 10% fetal bovine serum (FBS), 10 mM HEPES KOH pH 7.4, 2 mM sodium pyruvate, and 0.05 mM β-mercaptoethanol. All cells were maintained at 37° C. in an atmosphere of 5% CO2 in air. Logarithmically growing cells were routinely sub-cultured twice weekly. Briefly, cells were collected by centrifugation, resuspended in pre-warmed media, and diluted 1:10 into a 75 cm^2 flask.
as §2

[2] = test system: human Burkitt's lymphoma Ramos cells; experiment: Cell growth inhibition assay, Ramos; type: cell-based; settings: five days of incubation, XTT; read-out: IC50 Ramos (hs)
Procedure: as §1, §3, §2

[3] = test system: non-small cell lung cancer cells HOP-62; experiment: XTT cell proliferation assay, HOP-62; type: cell-based, human; settings: 5 days incubation, read-out: Antiproliferative activity, NSCLC HOP-62
Procedure: [The procedure below names another cell line; the source lists this cell line under the same test.] (§4) Exemplary compounds 1-8 were tested for anti-cancer activity in vitro using human renal cancer cells (ACHN and CAK-1), human pancreatic cells (BXPC3 and SU-86-86), human prostate cancer cell (DU14), human colon carcinoma cells (HT-29 and KM-12), leukemia cells (HL60), brain cancer/tumour cells (SK-A-AS, U87-MG), and human non-small cell lung cancer cells (H460). Compounds 1-8 are the specific embodiments of Formula (I) and Formula (IV) as described above in this application.
(§5) The cells were maintained as a monolayer in a growth medium; McCoy's 5A modified medium (Sigma, St. Louis, Mo.), supplemented with 2 mM L-glutamine (Gibco, Grand Island, N.Y.), 10% fetal bovine serum (FBS) (Multicell, WISENT Inc. St-Bruno, QC), antibiotic-antimycotic (Multicell), at 37° C. in a 5% CO2-humidified incubator. Cells were transferred onto 150 mm tissue culture plates and grown until sub-confluency (70-80%) prior to their use. The in vitro antiproliferative activity of compounds was evaluated by incubating the cells with varying concentrations of exemplary compounds as shown in Table 1 for 5 days. The efficacy of these compounds in this cell proliferation assay was measured based in the ability of live cells to reduce the tetrazolium salt XTT to orange colored compounds of formazan (XTT cell proliferation kit IT, Roche Applied Science, Montreal, QC).

[4] = test system: human renal cancer cells CAKI-1; experiment: XTT cell proliferation assay, CAKI-1; type: cell-based; settings: 5 days incubation, read-out: Antiproliferative activity, Kidney CAKI-1
Procedure: as §4, §5

[5] = test system: human pancreatic cells SU-86-86; experiment: XTT cell proliferation assay, SU-86-86; type: cell-based; settings: 5 days incubation, read-out: Antiproliferative activity, Pancreas SU-86-86
Procedure: as §4, §5

[6] = test system: renal cell carcinoma (ACHN); experiment: Renal cell carcinoma (ACHN) xenograft model; type: in vivo, CD-1 female nude mice; settings: vs vehicle-treated control, FIG. 4
Procedure: The ability of compound 1 to inhibit colon tumour growth in vivo was tested as follows. CD-1 female nude mice (7 mice per treatment group, 6-7 weeks) were injected […] with human colon adenocarcinoma cells HT-29 cells (3×10^6 cells in 0.1 ml PBS). Treatment of the mice with vehicle or 50 mg/kg/d of […] was initiated 5 days post-inoculation (size of tumours=20-40 mm^3) for 7-day cycles of five days followed by a 2 day break for 5 weeks. The size of the tumours was measured over the course of the experiment using calipers, and the weight of the tumours was measured after the animals were sacrificed.
The ability of compound 1 to inhibit renal cell carcinoma growth (see FIG. 4), to inhibit pancreatic carcinoma growth (FIG. 5), to inhibit large-cell lung carcinoma cell growth (FIG. 6), and to inhibit Glioblastoma cell growth (FIG. 7) was also tested following the general procedure as discussed above.

[7] = test system: non-small cell lung cancer cells EKVX; experiment: XTT cell proliferation assay, EKVX; type: cell-based, human; settings: 5 days incubation, read-out: Antiproliferative activity, NSCLC EKVX
Procedure: [The procedure below names another cell line; the source lists this cell line under the same test.] as §4, §5

[8] = test system: human pancreatic cells BXPC3; experiment: XTT cell proliferation assay, BXPC3; type: cell-based; settings: 5 days incubation, read-out: Antiproliferative activity, Pancreas BXPC3
Procedure: as §4, §5

[9] = test system: WEHI 231 (mouse, B-cell lymphoma); experiment: Cell growth inhibition assay, WEHI231; type: cell-based; settings: five days of incubation, XTT; read-out: IC50 WEHI231 (ms)
Procedure: as §1, §3, §2

P388D1 (mouse, lymphoma) = experiment: Cell growth inhibition assay, P388D1; type: cell-based; settings: five days of incubation, XTT; read-out: IC50 P388D1 (ms)
Procedure: as §1, §3, §2

[10] = test system: brain cancer/tumour cells SK-N-AS; experiment: XTT cell proliferation assay, SK-N-AS; type: cell-based, human; settings: 5 days incubation, read-out: Antiproliferative activity, Brain SK-N-AS
Procedure: as §4, §5

- pIC50 [1]: 6.68
- pIC50 (WR19L (mouse, lymphoma)): 7.09
- pIC50 [2]: 6.79
- pIC50 [3]: 6.68
- pIC50 [4]: 6.81
- pIC50 [7]: 6.66
- pIC50 [8]: 6.74
- pIC50 [9]: 8.28
- pIC50 (P388D1 (mouse, lymphoma)): 6.43
- pIC50 [10]: 6.68
Structure (SMILES): FC1(F)Oc2ccc(-c3nc4c5cccnc5c5ncccc5c4[nH]3)cc2O1 [Compound 1]
- pIC50 [5]: 6.74
- inhibition of tumour growth, as measured by tumour size [6]: able to inhibit tumour growth
